Reference: patent publication US20250145652A1, “INORGANIC SALTS OF NICOTINAMIDE MONONUCLEOTIDE AS ANTI-AGING AGENTS” (Life Biosciences Inc., priority 2018, published 2025)

System: COV434 cells
Experiment: NAD cell assay (NAD cycling method), cellular NAD+ levels
Assay type: cell-based, human
Settings: NAD levels in COV434 cells, 200 uM, 4 hr; for Fold increase compared to NMN: normalised to protein; for Fold Increase compared to NMN on a molar basis: mole per mole comparison of salt and parent
Procedure: NAD levels were assayed based on the NAD cycling method of Zhu and Rand, PLoS One (2012), herein incorporated by reference. COV434 cells were maintained in 6 well plates and treated with the indicated compounds at a concentration of 200 uM for 4 hr. Media was removed, plates were washed in cold PBS and cells were scraped down in NAD extraction buffer containing 10 mM nicotinamide, 50 mM Tris HCl, 0.1% Triton X-100. Cells were homogenised by sonication for 5 seconds, and samples were centrifuged at 7,000 g for 5 min at 4 degrees. Aliquots were taken for later protein assay, and samples were then passed through 10 kDa amicon filters at 14,000 g, 30 min at 4 degrees to remove proteins from the sample. Each sample was measured in technical triplicate, with 25 μL sample added to 100 μL ADH cycling mix (0.2 mg/ml alcohol dehydrogenase enzyme, 2% ethanol, 100 mM Tris pH 8.5). Samples were allowed to cycle for 10 min at room temperature, followed by 50 μL addition of an MTT/PMS solution (0.1 mM phenazine methosulfate, 0.8 mM 3-(4,5-Dimethylthiazol-2-yl)-2,5-diphenyltetrazolium bromide), 100 mM Tris-HCl pH 8.5). Plates were then incubated for 15 min and absorbance was measured at 570 nm. NAD concentrations were extrapolated from a standard curve, and normalised to protein concentrations determined by BCA protein assay.
The fold increase is obtained through a direct comparison on a mole per mole between the compared salt and its parent counterpart.

| Compound | Fold increase compared to NMN | Fold Increase compared to NMN on a molar basis |
| --- | --- | --- |
| NC(=O)c1ccc[n+]([C@@H]2O[C@H](COP(=O)([O-])[O-])[C@@H](O)[C@H]2O)c1.[Na+] [Compound I-001, Sodium ((2R,3S,4R,5R)-5-(3-carbamoylpyridin-1-ium-1-yl)-3,4-dihydroxytetrahydrofuran-2-yl)methyl phosphate] | 1.7 | 1.78 |
| NC(=O)c1ccc[n+]([C@@H]2O[C@H](COP(=O)([O-])O)[C@@H](O)[C@H]2O)c1 [NMN, nicotinamide mononucleotide] | 1.0 | 1.0 |
